Target: S-adenosylhomocysteine hydrolase (Homo sapiens)
Test: Inhibition of S-adenosylhomocysteine hydrolase (unknown origin)

| IC50 | SMILES |
| --- | --- |
| 2.7 nM | Nc1ncc(Br)c2c1ncn2[C@@H]1C=C(CO)[C@@H](O)[C@H]1O |
| 13 nM | Nc1ncc(Br)c2c1ncn2C1=C[C@H](CO)[C@@H](O)[C@H]1O |
| 10000 nM | Nc1ncc(Br)c2c1ncn2C1=C[C@@H](CO)[C@H](O)[C@@H]1O |

From BindingDB's records for doi:10.1016/j.bmcl.2015.12.061 (Auburn University, 2016)
